# What was measured:
# Experiment in all cases: Greenhouse experiment, pre-emergence treatment
# Settings in all cases: pre-emergence method
# [1] = test system: AMARE; type: in vivo, Amaranthus retroflexus
# Excerpt: (§1) The seeds of the test plants were sown separately for each species. For the pre-emergence treatment, the active ingredients, which had been suspended or emulsified in water, were applied directly after sowing by means of finely distributing nozzles. The containers were irrigated gently to promote germination and growth and subsequently covered with transparent plastic hoods until the plants had rooted. This cover caused uniform germination of the test plants, unless this had been impaired by the active ingredients. Depending on the species, the plants were kept at 10-25° C. or 20-35° C., respectively. The test period extended over 2 to 4 weeks. During this time, the plants were tended, and their response to the individual treatments was evaluated. Evaluation was carried out using a scale from 0 to 100. 100 means no emergence of the plants, or complete destruction of at least the aerial moieties, and 0 means no damage, or normal course of growth. A moderate herbicidal activity is given at values of at least 60, a good herbicidal activity is given at values of at least 70, and a very good herbicidal activity is given at values of at least 85. […] [table]
# [2] = test system: ECHCG; type: in vivo, Echinochloa crus-galli
# Excerpt: (§2) The culture containers used were plastic flowerpots containing loamy sand with approximately 3.0% of humus as the substrate. The seeds of the test plants were sown separately for each species.
# (§3) For the pre-emergence treatment, the active ingredients, which had been suspended or emulsified in water, were applied directly after sowing by means of finely distributing nozzles. The containers were irrigated gently to promote germination and growth and subsequently covered with transparent plastic hoods until the plants had rooted. This cover caused uniform germination of the test plants, unless this had been impaired by the active ingredients.
# (§4) Depending on the species, the plants were kept at 10-25° C. or 20-35° C., respectively.
# (§5) The test period extended over 2 to 4 weeks. During this time, the plants were tended, and their response to the individual treatments was evaluated.
# (§6) Evaluation was carried out using a scale from 0 to 100. 100 means no emergence of the plants, or complete destruction of at least the aerial moieties, and 0 means no damage, or normal course of growth. A moderate herbicidal activity is given at values of at least 60, a good herbicidal activity is given at values of at least 70, and a very good herbicidal activity is given at values of at least 85.
# (§7) The plants used in the greenhouse experiments were of the following species: […]
# [3] = test system: SETFA; type: in vivo, Setaria faberi
# Excerpt: as §1
# [4] = test system: APESV; type: in vivo, Apera spica-venti
# Excerpt: as §2, §3, §4, §5, §6, §7
structure (smiles),measurement,setting,value
COc1cc(I)cc(Oc2cccc(F)c2Nc2nc(N)nc(C(C)(C)F)n2)c1 [Example 84],herbicidal activity against AMARA,[1]; application rate 250 g/ha,very good (a very good herbicidal activity is given at values of at least 85)
same,herbicidal activity against ECHCG,[2]; application rate 250 g/ha,very good (a very good herbicidal activity is given at values of at least 85)
same,herbicidal activity against SETFA,[3]; application rate 250 g/ha,very good (a very good herbicidal activity is given at values of at least 85)
CC(C)(F)c1nc(N)nc(Nc2c(F)c(F)cc(-c3ccccc3)c2F)n1 [Example 44],herbicidal activity against AMARE,[1]; application rate 0.5 kg/ha,good to very good
same,herbicidal activity against SETFA,[3]; application rate 0.5 kg/ha,good (a good herbicidal activity is given at values of at least 70)
CC(C)(F)c1nc(N)nc(Nc2c(F)cccc2Oc2cccc(OC(F)F)c2)n1 [Example 95],herbicidal activity against APESV,[4]; application rate 500 g/ha,very good (a very good herbicidal activity is given at values of at least 85)
same,herbicidal activity against ECHCG,[2]; application rate 500 g/ha,very good (a very good herbicidal activity is given at values of at least 85)
same,herbicidal activity against SETFA,[3]; application rate 500 g/ha,very good (a very good herbicidal activity is given at values of at least 85)
CC(C)(F)c1nc(N)nc(Nc2c(F)cccc2Oc2cc(-c3ccccc3)cc(C(F)(F)F)c2)n1 [Example 87],herbicidal activity against AMARA,[1]; application rate 500 g/ha,very good (a very good herbicidal activity is given at values of at least 85)
same,herbicidal activity against ECHCG,[2]; application rate 500 g/ha,very good (a very good herbicidal activity is given at values of at least 85)
same,herbicidal activity against SETFA,[3]; application rate 500 g/ha,very good (a very good herbicidal activity is given at values of at least 85)
Cc1cc(C)cc(Oc2cccc(F)c2Nc2nc(N)nc(CC(C)C)n2)c1 [Example 17],herbicidal activity against APESV,[4]; application rate 1000 g/ha,good (a good herbicidal activity is given at values of at least 70)
same,herbicidal activity against SEFTA,[3]; application rate 1000 g/ha,very good (a very good herbicidal activity is given at values of at least 85)
CN(c1ccccc1)c1cccc(F)c1Nc1nc(N)nc(C(C)(C)F)n1 [Example 102],herbicidal activity against AMARE,[1]; application rate 1000 g/ha,very good (a very good herbicidal activity is given at values of at least 85)
same,herbicidal activity against ECHCG,[2]; application rate 1000 g/ha,very good (a very good herbicidal activity is given at values of at least 85)
same,herbicidal activity against SEFTA,[3]; application rate 1000 g/ha,very good (a very good herbicidal activity is given at values of at least 85)
CC(C)(F)c1nc(N)nc(Nc2c(F)cccc2Oc2cc(OC(F)(F)F)cc(-c3ccccc3)c2)n1 [Example 98],herbicidal activity against AMARE,[1]; application rate 500 g/ha,very good (a very good herbicidal activity is given at values of at least 85)
same,herbicidal activity against ECHCG,[2]; application rate 500 g/ha,very good (a very good herbicidal activity is given at values of at least 85)
same,herbicidal activity against SETFA,[3]; application rate 500 g/ha,very good (a very good herbicidal activity is given at values of at least 85)
CC(C)(C)c1cccc(Oc2cccc(F)c2Nc2nc(N)nc(C(C)(C)F)n2)c1 [Example 92],herbicidal activity against APESV,[4]; application rate 500 g/ha,very good (a very good herbicidal activity is given at values of at least 85)
same,herbicidal activity against ECHCG,[2]; application rate 500 g/ha,very good (a very good herbicidal activity is given at values of at least 85)
same,herbicidal activity against SETFA,[3]; application rate 500 g/ha,very good (a very good herbicidal activity is given at values of at least 85)
Cc1cc(C)cc(Oc2cccc(Cl)c2Nc2nc(N)nc(C(C)(C)F)n2)c1 [Example 37],herbicidal activity against APESV,[4]; application rate 0.25 kg/ha,very
same,herbicidal activity against ECHCG,[2]; application rate 0.25 kg/ha,good (a good herbicidal activity is given at values of at least 70)
CN(C)c1cc(Oc2cccc(F)c2Nc2nc(N)nc(C(C)(C)F)n2)cc(C(F)(F)F)c1 [Example 80],herbicidal activity against ECHCG,[2]; application rate 125 g/ha,very good (a very good herbicidal activity is given at values of at least 85)
same,herbicidal activity against SETFA,[3]; application rate 125 g/ha,very good (a very good herbicidal activity is given at values of at least 85)
CC(C)(F)c1nc(N)nc(Nc2c(F)cccc2Oc2cccc(Cl)c2)n1 [Example 94],herbicidal activity against APESV,[4]; application rate 500 g/ha,very good (a very good herbicidal activity is given at values of at least 85)
same,herbicidal activity against ECHCG,[2]; application rate 500 g/ha,very good (a very good herbicidal activity is given at values of at least 85)
same,herbicidal activity against SETFA,[3]; application rate 500 g/ha,very good (a very good herbicidal activity is given at values of at least 85)
CC(C)(F)c1nc(N)nc(Nc2c(F)cccc2Oc2cccc(C(F)(F)F)c2)n1 [Example 88],herbicidal activity against AMARA,[1]; application rate 500 g/ha,very good (a very good herbicidal activity is given at values of at least 85)
same,herbicidal activity against ECHCG,[2]; application rate 500 g/ha,very good (a very good herbicidal activity is given at values of at least 85)
same,herbicidal activity against SETFA,[3]; application rate 500 g/ha,very good (a very good herbicidal activity is given at values of at least 85)
CC(C)(F)c1nc(N)nc(Nc2c(F)cccc2Oc2cccc(Br)c2)n1 [Example 93],herbicidal activity against APESV,[4]; application rate 500 g/ha,very good (a very good herbicidal activity is given at values of at least 85)
same,herbicidal activity against ECHCG,[2]; application rate 500 g/ha,very good (a very good herbicidal activity is given at values of at least 85)
same,herbicidal activity against SETFA,[3]; application rate 500 g/ha,very good (a very good herbicidal activity is given at values of at least 85)
Cc1cc(Oc2cccc(F)c2Nc2nc(N)nc(C(C)(C)F)n2)cc(OC2CCCC2)c1 [Example 85],herbicidal activity against AMARA,[1]; application rate 250 g/ha,very good (a very good herbicidal activity is given at values of at least 85)
Cc1cc(C)cc(Oc2cccc(F)c2Nc2nc(N)nc(C(C)C)n2)c1 [Example 19],herbicidal activity against APESV,[4]; application rate 0.25 kg/ha,very good (a very good herbicidal activity is given at values of at least 85)
same,herbicidal activity against APESV,[4]; application rate 250 g/ha,very good (a very good herbicidal activity is given at values of at least 85)
same,herbicidal activity against ECHCG,[2]; application rate 0.25 kg/ha,very good (a very good herbicidal activity is given at values of at least 85)
same,herbicidal activity against ECHCG,[2]; application rate 250 g/ha,very good (a very good herbicidal activity is given at values of at least 85)
same,herbicidal activity against SETFA,[3]; application rate 0.25 kg/ha,very good (a very good herbicidal activity is given at values of at least 85)
same,herbicidal activity against SEFTA,[3]; application rate 250 g/ha,very good (a very good herbicidal activity is given at values of at least 85)
COc1cc(OC)cc(Oc2cccc(F)c2Nc2nc(N)nc(C(C)(C)F)n2)c1 [Example 27],herbicidal activity against APESV,[4]; application rate 0.25 kg/ha,very good (a very good herbicidal activity is given at values of at least 85)
same,herbicidal activity against ECHCG,[2]; application rate 0.25 kg/ha,very good (a very good herbicidal activity is given at values of at least 85)
same,herbicidal activity against SETFA,[3]; application rate 0.25 kg/ha,very good (a very good herbicidal activity is given at values of at least 85)
COC(=O)c1cccc(Oc2cccc(F)c2Nc2nc(N)nc(C(C)(C)F)n2)c1 [Example 91],herbicidal activity against APESV,[4]; application rate 500 g/ha,very good (a very good herbicidal activity is given at values of at least 85)
Cc1cc(Oc2cccc(F)c2Nc2nc(N)nc(C(C)(C)F)n2)cc(OC2CCCCC2)c1 [Example 86],herbicidal activity against SEFTA,[3]; application rate 500 g/ha,good (a good herbicidal activity is given at values of at least 70)
CCC(C)(F)c1nc(N)nc(Nc2c(F)cccc2Oc2cc(C)cc(C)c2)n1 (centres unmarked) [Example 32],herbicidal activity against APESV,[4]; application rate 0.25 kg/ha,very good (a very good herbicidal activity is given at values of at least 85)
same,herbicidal activity against ECHCG,[2]; application rate 0.25 kg/ha,very good (a very good herbicidal activity is given at values of at least 85)
same,herbicidal activity against SETFA,[3]; application rate 0.25 kg/ha,very good (a very good herbicidal activity is given at values of at least 85)

# Source: US10029992B2, “Diaminotriazine compounds and their use as herbicides” (BASF SE, priority 2014, dated 2018)
